Test system: MV-4-11 cells
Assay: Gene expression microarray analysis (Affymetrix PrimeView) and GSEA
Format: cell-based, human
Set-up: RFU PODN (11730768_x_at) / Fold change /veh PODN (11730768_x_at) / RFU LINC00158 (11744669_a_at) / Fold change /veh LINC00158 (11744669_a_at) / RFU DUSP10 (11751237_a_at) / Fold change /veh DUSP10 (11751237_a_at) / RFU ID3 (11757404_x_at) / Fold change /veh ID3 (11757404_x_at) / RFU PLEKHG5 (11737974_s_at) / Fold change /veh PLEKHG5 (11737974_s_at) / RFU LRRC4B (11730491_at) / Fold change /veh LRRC4B (11730491_at) / RFU GIMAP4 (11747438_a_at) / Fold change /veh GIMAP4 (11747438_a_at) / RFU KRT8 (11758183_x_at) / Fold change /veh KRT8 (11758183_x_at) / RFU CNN1 (11734310_a_at) / Fold change /veh CNN1 (11734310_a_at) / RFU VPS37D (11726825_at) / Fold change /veh VPS37D (11726825_at) / RFU C10orf10 (11716522_x_at) / Fold change /veh C10orf10 (11716522_x_at) / RFU KIR2DL2 /// KIR2DL4 /// KIR2DL5A /// KIR2DL5B /// KIR2DS1 /// KIR2DS2 /// KIR2DS3 /// KIR2DS4 /// KIR3DL3 /// KIR3DL3 /// KIR3DS1 (11738374_at) / Fold change /veh KIR2DL2 /// KIR2DL4 /// KIR2DL5A /// KIR2DL5B /// KIR2DS1 /// KIR2DS2 /// KIR2DS3 /// KIR2DS4 /// KIR3DL3 /// KIR3DL3 /// KIR3DS1 (11738374_at) / RFU C1QL1 (11718748_at) / Fold change /veh C1QL1 (11718748_at) / RFU TMPRSS4 (11747572_a_at) / Fold change /veh TMPRSS4 (11747572_a_at) / RFU HAMP (11756126_x_at) / Fold change /veh HAMP (11756126_x_at) / RFU RNFT2 (11725882_a_at) / Fold change /veh RNFT2 (11725882_a_at) / RFU NR4A2 (11747474_a_at) / Fold change /veh NR4A2 (11747474_a_at) / RFU ABCC12 (11746883_a_at) / Fold change /veh ABCC12 (11746883_a_at) / RFU TMEM136 (11760407_x_at) / Fold change /veh TMEM136 (11760407_x_at) / RFU CLDN22 /// WWC2 (11732394_at) / Fold change /veh CLDN22 /// WWC2 (11732394_at) / RFU HLA-DPB1 (11760878_x_at) / Fold change /veh HLA-DPB1 (11760878_x_at) / RFU SPINT1 (11716480_a_at) / Fold change /veh SPINT1 (11716480_a_at) / RFU GAP43 (11754022_s_at) / Fold change /veh GAP43 (11754022_s_at) / RFU A4GNT (11735810_at) / Fold change /veh A4GNT (11735810_at) / RFU PRB3 (11715151_x_at) / Fold change /veh PRB3 (11715151_x_at) / RFU TUBB4B (11761932_at) / Fold change /veh TUBB4B (11761932_at) / RFU CAPN14 (11732068_a_at) / Fold change /veh CAPN14 (11732068_a_at) / RFU TMCC2 (11721928_a_at) / Fold change /veh TMCC2 (11721928_a_at) / RFU IRGQ (11745062_a_at) / Fold change /veh IRGQ (11745062_a_at) / RFU FAM174B (11720279_a_at) / Fold change /veh FAM174B (11720279_a_at) / RFU TMPRSS4 (11748680_a_at) / Fold change /veh TMPRSS4 (11748680_a_at) / RFU FAM212B (11763350_a_at) / Fold change /veh FAM212B (11763350_a_at) / RFU PLEKHG5 (11743358_a_at) / Fold change /veh PLEKHG5 (11743358_a_at) / RFU ZSCAN30 (11745921_a_at) / Fold change /veh ZSCAN30 (11745921_a_at) / RFU CMKLR1 (11741424_a_at) / Fold change /veh CMKLR1 (11741424_a_at) / RFU LOC101060620 /// MAPK8IP1 (11723275_at) / Fold change /veh LOC101060620 /// MAPK8IP1 (11723275_at) / RFU SPTSSB (11747773_x_at) / Fold change /veh SPTSSB (11747773_x_at) / RFU PRSS12 (11739890_at) / Fold change /veh PRSS12 (11739890_at) / RFU BIN1 (11741810_x_at) / Fold change /veh BIN1 (11741810_x_at) / RFU WNT11 (11732464_a_at) / Fold change /veh WNT11 (11732464_a_at) / RFU C10orf10 (11716521_a_at) / Fold change /veh C10orf10 (11716521_a_at) / RFU C5orf56 (11738089_at) / Fold change /veh C5orf56 (11738089_at) / RFU CYB561 (11721691_x_at) / Fold change /veh CYB561 (11721691_x_at) / RFU ANKRD19P (11752326_a_at) / Fold change /veh ANKRD19P (11752326_a_at) / RFU OR2T12 /// OR2T33 /// OR2T8 (11738714_s_at) / Fold change /veh OR2T12 /// OR2T33 /// OR2T8 (11738714_s_at) / RFU VCAN (11748164_a_at) / Fold change /veh VCAN (11748164_a_at) / RFU JSRP1 (11732532_at) / Fold change /veh JSRP1 (11732532_at) / RFU KRTAP10-11 (11738290_x_at) / Fold change /veh KRTAP10-11 (11738290_x_at) / RFU MYO3A (11730013_a_at) / Fold change /veh MYO3A (11730013_a_at) / RFU EBF3 (11725865_a_at) / Fold change /veh EBF3 (11725865_a_at) / RFU CAMK2N1 (11719241_x_at) / Fold change /veh CAMK2N1 (11719241_x_at) / RFU C5orf56 (11738088_a_at) / Fold change /veh C5orf56 (11738088_a_at) / RFU OLFML3 (11715873_a_at) / Fold change /veh OLFML3 (11715873_a_at) / RFU LOC100653217 /// NTM (11731650_a_at) / Fold change /veh LOC100653217 /// NTM (11731650_a_at) / RFU MAPK11 (11762145_a_at) / Fold change /veh MAPK11 (11762145_a_at) / RFU FIZ1 (11724087_x_at) / Fold change /veh FIZ1 (11724087_x_at) / RFU OASL (11726364_x_at) / Fold change /veh OASL (11726364_x_at) / RFU SOX15 (11748057_x_at) / Fold change /veh SOX15 (11748057_x_at) / RFU CD79A (11719716_a_at) / Fold change /veh CD79A (11719716_a_at) / RFU HIST1H1D (11736915_at) / Fold change /veh HIST1H1D (11736915_at) / RFU CASKIN2 (11723855_a_at) / Fold change /veh CASKIN2 (11723855_a_at) / RFU LOC730098 (11760151_x_at) / Fold change /veh LOC730098 (11760151_x_at) / RFU OR4N2 (11742367_at) / Fold change /veh OR4N2 (11742367_at) / RFU PRRT2 (11749266_a_at) / Fold change /veh PRRT2 (11749266_a_at) / RFU SNX32 (11753110_a_at) / Fold change /veh SNX32 (11753110_a_at) / RFU CDHR5 (11726645_a_at) / Fold change /veh CDHR5 (11726645_a_at) / RFU RCAN1 (11760418_a_at) / Fold change /veh RCAN1 (11760418_a_at) / RFU FAM167A (11723789_a_at) / Fold change /veh FAM167A (11723789_a_at) / RFU FAM26E (11764081_at) / Fold change /veh FAM26E (11764081_at) / RFU ISYNA1 (11749810_s_at) / Fold change /veh ISYNA1 (11749810_s_at) / RFU ACY1 (11761880_at) / Fold change /veh ACY1 (11761880_at) / RFU 11764098_at / Fold change /veh 11764098_at / RFU SAMD14 (11745864_x_at) / Fold change /veh SAMD14 (11745864_x_at) / RFU NPB (11741838_a_at) / Fold change /veh NPB (11741838_a_at) / RFU TMPRSS6 (11731388_a_at) / Fold change /veh TMPRSS6 (11731388_a_at) / RFU KRTAP10-2 (11738614_at) / Fold change /veh KRTAP10-2 (11738614_at) / RFU ARHGAP8 /// PRR5-ARHGAP8 (11727945_x_at) / Fold change /veh ARHGAP8 /// PRR5-ARHGAP8 (11727945_x_at) / RFU KRTAP5-7 /// NADSYN1 (11734609_at) / Fold change /veh KRTAP5-7 /// NADSYN1 (11734609_at) / RFU RASL12 (11751679_a_at) / Fold change /veh RASL12 (11751679_a_at) / RFU CDKN2B (11736163_a_at) / Fold change /veh CDKN2B (11736163_a_at) / RFU PRF1 (11729649_at) / Fold change /veh PRF1 (11729649_at) / RFU, ZNF638 /// ZNF638-IT1 / Fold change vs veh, ZNF638 /// ZNF638-IT1 / RFU, PANK3 / Fold change vs veh, PANK3 / RFU, SH3YL1 / Fold change vs veh, SH3YL1 / RFU, ZEB2 / Fold change vs veh, ZEB2 / RFU, NRIP1 / Fold change vs veh, NRIP1 / RFU, PTTG1IP / Fold change vs veh, PTTG1IP / RFU, CAPN2 / Fold change vs veh, CAPN2 / RFU, MED14 / Fold change vs veh, MED14 / RFU, SNORA58 / Fold change vs veh, SNORA58 / RFU, C1orf63 / Fold change vs veh, C1orf63 / RFU, LRRFIP1 / Fold change vs veh, LRRFIP1 / RFU, NDUFAF7 / Fold change vs veh, NDUFAF7 / RFU, SLC12A2 / Fold change vs veh, SLC12A2 / RFU, IBTK / Fold change vs veh, IBTK / RFU, ESF1 / Fold change vs veh, ESF1 / Fold change vs veh, TMEM50B / RFU, TAOK1 / Fold change vs veh, TAOK1 / RFU, ACBD3 / Fold change vs veh, ACBD3 / RFU, TMA16 / Fold change vs veh, TMA16 / RFU, RWDD3 / Fold change vs veh, RWDD3 / RFU, BCAT1 / Fold change vs veh, BCAT1 / RFU, EDEM3 / Fold change vs veh, EDEM3 / RFU, TMEM33 / Fold change vs veh, TMEM33 / RFU, WDR75 / Fold change vs veh, WDR75 / RFU, AHCTF1 / Fold change vs veh, AHCTF1 / RFU, TFRC / Fold change vs veh, TFRC / RFU, ZDHHC17 / Fold change vs veh, ZDHHC17 / RFU, NOM1 / Fold change vs veh, NOM1 / RFU, ARL8B / Fold change vs veh, ARL8B / RFU, ZBTB11 / Fold change vs veh, ZBTB11 / RFU, TAMM41 / Fold change vs veh, TAMM41 / RFU, KIAA1704 /// LOC100996395 / Fold change vs veh, KIAA1704 /// LOC100996395 / RFU, ING1 / Fold change vs veh, ING1 / RFU, TRMT61B / Fold change vs veh, TRMT61B / RFU, FUBP3 / Fold change vs veh, FUBP3 / RFU, TP53 / Fold change vs veh, TP53 / RFU, TNKS2 / Fold change vs veh, TNKS2 / RFU, ZFP14 / Fold change vs veh, ZFP14 / RFU, ACTR2 / Fold change vs veh, ACTR2 / RFU, PPP3R1 / Fold change vs veh, PPP3R1 / RFU, PIK3R1 / Fold change vs veh, PIK3R1 / RFU, HNRNPA1 / Fold change vs veh, HNRNPA1 / RFU, RNF170 / Fold change vs veh, RNF170 / RFU, ZNF28 / Fold change vs veh, ZNF28 / RFU, RNGTT / Fold change vs veh, RNGTT / RFU, OGT / Fold change vs veh, OGT / RFU, BRD1 / Fold change vs veh, BRD1 / RFU, MARS / Fold change vs veh, MARS / RFU, ZNF655 / Fold change vs veh, ZNF655 / RFU, FAHD1 / Fold change vs veh, FAHD1 / RFU, BDP1 / Fold change vs veh, BDP1 / RFU, LRRCC1 / Fold change vs veh, LRRCC1 / RFU, ARID1A / Fold change vs veh, ARID1A / RFU, ZNF146 / Fold change vs veh, ZNF146 / RFU, ZNF330 / Fold change vs veh, ZNF330 / RFU, GPN3 / Fold change vs veh, GPN3 / RFU, C9orf123 / Fold change vs veh, C9orf123 / RFU, N4BP2L2 / Fold change vs veh, N4BP2L2 / RFU, ARFIP1 / Fold change vs veh, ARFIP1 / RFU, FAM179B / Fold change vs veh, FAM179B / RFU, BCL10 / Fold change vs veh, BCL10 / RFU, UHRF1BP1L / Fold change vs veh, UHRF1BP1L / RFU, BET1 / Fold change vs veh, BET1 / RFU, CNOT2 / Fold change vs veh, CNOT2 / RFU, ZNF268 / Fold change vs veh, ZNF268 / Fold change vs veh, ZNF507 / RFU, DGCR2 / Fold change vs veh, DGCR2 / RFU, WDSUB1 / Fold change vs veh, WDSUB1 / Fold change vs veh, HSP90B1 /// MIR3652 / RFU, ADSS / Fold change vs veh, ADSS / RFU, GK / Fold change vs veh, GK / RFU, ZNF148 / Fold change vs veh, ZNF148 / RFU, TAF9 / Fold change vs veh, TAF9 / RFU, SLC1A5 / Fold change vs veh, SLC1A5 / RFU, SLMO2 / Fold change vs veh, SLMO2 / RFU, ABCC4 / Fold change vs veh, ABCC4 / RFU, LOC101060439 /// RAP1B / Fold change vs veh, LOC101060439 /// RAP1B / RFU, RFX7 / Fold change vs veh, RFX7 / RFU, GTPBP10 / Fold change vs veh, GTPBP10 / RFU, CNEP1R1 / Fold change vs veh, CNEP1R1 / RFU, BIVM-ERCC5 /// ERCC5 / Fold change vs veh, BIVM-ERCC5 /// ERCC5 / RFU, ILF3 / Fold change vs veh, ILF3 / RFU 11762660_at / Fold change /veh 11762660_at / RFU VCAN (11757783_s_at) / Fold change /veh VCAN (11757783_s_at) / RFU DDX43 (11728927_at) / Fold change /veh DDX43 (11728927_at) / RFU KRT8 (11758188_x_at) / Fold change /veh KRT8 (11758188_x_at) / RFU NKD1 (11759106_at) / Fold change /veh NKD1 (11759106_at) / RFU SRD5A1 (11742802_a_at) / Fold change /veh SRD5A1 (11742802_a_at) / RFU TPSAB1 /// TPSB2 (11721975_s_at) / Fold change /veh TPSAB1 /// TPSB2 (11721975_s_at) / RFU GSTM3 (11746129_a_at) / Fold change /veh GSTM3 (11746129_a_at) / RFU IL23R (11737362_x_at) / Fold change /veh IL23R (11737362_x_at) / RFU TMEM51 (11727254_a_at) / Fold change /veh TMEM51 (11727254_a_at) / RFU PIWIL2 (11732686_x_at) / Fold change /veh PIWIL2 (11732686_x_at) / RFU ORM1 (11744905_x_at) / Fold change /veh ORM1 (11744905_x_at) / RFU CCDC152 (11743942_at) / Fold change /veh CCDC152 (11743942_at) / RFU ECM1 (11717891_a_at) / Fold change /veh ECM1 (11717891_a_at) / RFU IL23R (11748794_a_at) / Fold change /veh IL23R (11748794_a_at) / RFU TNFAIP8L3 (11732012_x_at) / Fold change /veh TNFAIP8L3 (11732012_x_at) / RFU MBOAT4 (11741988_at) / Fold change /veh MBOAT4 (11741988_at) / RFU 11764193_at / Fold change /veh 11764193_at / RFU TMEM53 (11763286_at) / Fold change /veh TMEM53 (11763286_at) / RFU MAGEB2 (11727129_at) / Fold change /veh MAGEB2 (11727129_at) / RFU TMEM200A (11744735_a_at) / Fold change /veh TMEM200A (11744735_a_at) / RFU CCDC152 (11751479_a_at) / Fold change /veh CCDC152 (11751479_a_at) / RFU FAM211A (11726209_a_at) / Fold change /veh FAM211A (11726209_a_at) / RFU RGS16 (11746705_a_at) / Fold change /veh RGS16 (11746705_a_at) / RFU VCAN (11755009_s_at) / Fold change /veh VCAN (11755009_s_at) / RFU RHOB (11743442_s_at) / Fold change /veh RHOB (11743442_s_at) / RFU RGS16 (11720943_a_at) / Fold change /veh RGS16 (11720943_a_at) / RFU RGS16 (11720944_at) / Fold change /veh RGS16 (11720944_at) / RFU, VPS4B / Fold change vs veh, VPS4B / RFU, CREB1 / Fold change vs veh, CREB1 / RFU, DNAJC13 / Fold change vs veh, DNAJC13 / RFU, GNAQ / Fold change vs veh, GNAQ / RFU, CDK5R1 / Fold change vs veh, CDK5R1 / RFU, ZRANB3 / Fold change vs veh, ZRANB3 / RFU, CUL4A / Fold change vs veh, CUL4A / RFU, CCNY / Fold change vs veh, CCNY / RFU, UFL1 / Fold change vs veh, UFL1 / RFU, COG3 / Fold change vs veh, COG3 / RFU, DIAPH2 / Fold change vs veh, DIAPH2 / RFU, SKA2 / Fold change vs veh, SKA2 / RFU, AFF3 / Fold change vs veh, AFF3 / RFU, LMF1 / Fold change vs veh, LMF1 / RFU, IPO11 / Fold change vs veh, IPO11 / RFU, DFFB / Fold change vs veh, DFFB / RFU, FOXP1 / Fold change vs veh, FOXP1 / RFU, CARD8 / Fold change vs veh, CARD8 / RFU, STRN3 / Fold change vs veh, STRN3 / RFU, ADK / Fold change vs veh, ADK / RFU, RASSF2 / Fold change vs veh, RASSF2 / RFU, WIPF1 / Fold change vs veh, WIPF1 / RFU, LARP1B / Fold change vs veh, LARP1B / RFU, RASA1 / Fold change vs veh, RASA1 / RFU, RB1 / Fold change vs veh, RB1 / RFU, PPFIA1 / Fold change vs veh, PPFIA1 / RFU, MAT2A / Fold change vs veh, MAT2A / RFU, CCT5 / Fold change vs veh, CCT5 / RFU, WDR92 / Fold change vs veh, WDR92 / RFU, CUX1 / Fold change vs veh, CUX1 / RFU, TTC7A / Fold change vs veh, TTC7A / RFU, TMEM135 / Fold change vs veh, TMEM135 / RFU, DEPTOR / Fold change vs veh, DEPTOR / RFU, CPM / Fold change vs veh, CPM / RFU, DNAJB6 / Fold change vs veh, DNAJB6 / RFU, CACNA2D3 / Fold change vs veh, CACNA2D3 / RFU, DTX4 / Fold change vs veh, DTX4 / RFU, TFCP2 / Fold change vs veh, TFCP2 / RFU, GMCL1 /// GMCL1P1 / Fold change vs veh, GMCL1 /// GMCL1P1 / RFU, AEBP2 / Fold change vs veh, AEBP2 / RFU, SNHG1 /// SNORD22 /// SNORD25 /// SNORD26 /// SNORD27 /// SNORD28 /// SNORD29 /// SNORD31 / Fold change vs veh, SNHG1 /// SNORD22 /// SNORD25 /// SNORD26 /// SNORD27 /// SNORD28 /// SNORD29 /// SNORD31 / Fold change (Aza/veh), C12orf56 (ProbeSet 11735607_a_at) / Fold change (ACY-1035/veh), C12orf56 (ProbeSet 11735607_a_at) / Fold change (Aza/veh), FGFR1OP (ProbeSet 11751329_s_at) / Fold change (ACY-1035/veh), FGFR1OP (ProbeSet 11751329_s_at) / Fold change (Aza/veh), VPS36 (ProbeSet 11739960_a_at) / Fold change (ACY-1035/veh), VPS36 (ProbeSet 11739960_a_at) / RFU SYPL1 (11715823_x_at) / Fold change /veh SYPL1 (11715823_x_at) / RFU IGFBP7 (11715501_s_at) / Fold change /veh IGFBP7 (11715501_s_at) / RFU REEP3 (11722064_at) / Fold change /veh REEP3 (11722064_at) / RFU IGLL1 (11728026_x_at) / Fold change /veh IGLL1 (11728026_x_at): dose or concentration left out as unconfirmed
Conditions: MV-4-11 cells, 48 hours

## Nc1ncn([C@@H]2O[C@H](CO)[C@@H](O)[C@H]2O)c(=O)n1 [azacitidine]
  RFU CMKLR1 (11741424_a_at): 16.54 RFU
